According to ChEMBL document CHEMBL3808363, “2-(Thienothiazolylimino)-1,3-thiazolidin-4-ones inhibit cell division cycle 25 A phosphatase” (Bioorg Med Chem, 2016):

Molecular target: T1, M-phase inducer phosphatase 3 (Homo sapiens) (UniProt P30307)
T1 sequence (whole entry): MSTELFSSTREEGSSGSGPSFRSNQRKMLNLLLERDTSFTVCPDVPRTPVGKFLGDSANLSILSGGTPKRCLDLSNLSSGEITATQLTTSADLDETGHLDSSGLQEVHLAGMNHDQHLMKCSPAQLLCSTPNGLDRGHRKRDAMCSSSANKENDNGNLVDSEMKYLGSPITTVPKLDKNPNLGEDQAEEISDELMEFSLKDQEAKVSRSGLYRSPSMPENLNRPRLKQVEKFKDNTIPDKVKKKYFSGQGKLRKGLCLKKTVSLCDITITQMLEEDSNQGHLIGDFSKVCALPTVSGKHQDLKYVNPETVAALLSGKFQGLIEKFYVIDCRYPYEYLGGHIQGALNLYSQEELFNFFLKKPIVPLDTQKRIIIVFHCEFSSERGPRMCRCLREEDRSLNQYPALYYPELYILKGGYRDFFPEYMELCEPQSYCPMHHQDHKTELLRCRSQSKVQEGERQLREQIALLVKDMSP
Assay: Inhibition of human recombinant full length GST-tagged CDC25C transfected in Escherichia coli BL21-DE3 using 3-O-methylfluorescein phosphate as substrate at 10 uM incubated for 20 mins followed by substrate addition measured every 10 mins for 2 hrs by fluorimetric assay

COc1ccc(/C=C2/S/C(=N\c3nc4cc(-c5ccc(Cl)cc5)sc4s3)NC2=O)cc1
inhibition: 24%
